The values below come from ChEMBL document CHEMBL5226298, “Chemoenzymatic Synthesis of 5-Methylpsilocybin: A Tryptamine with Potential Psychedelic Activity” (2021).

Each structure is given as a SMILES string.

Test [1] has as its system Mus musculus. Nature of the test: Induction of psychedelics activity in C57BL/6J mouse assessed as head-twitch response at upto 10 mg/kg, ip measured for 30 min. In kind it is functional. Conditions: 0.5 h.
Test [2] relates to Mus musculus. The experiment in a line: Induction of psychedelics activity in mouse assessed as head-twitch response at upto 10 mg/kg, ip measured for 30 min. It is filed as functional. To be noted: 0.5 h.

In the case of `CN(C)CCc1c[nH]c2ccccc12` [N,N-DIMETHYLTRYPTAMINE], the ED50 in the test on Mus musculus [1] was 5.05 µmol/kg. Take `Cc1ccc2[nH]cc(CCN(C)C)c2c1OP(=O)(O)O`: the ED50 with Mus musculus [2] was 1.23 mg/kg.
